We go through 7 compounds from PMC8550792, “Evolution of kinase polypharmacology across HSP90 drug discovery” (Cell Chemical Biology, 2021).

Broadly, the IC50 is the midpoint of a concentration-inhibition curve.

The subject of test [1] is 382 unique human kinases. Put plainly: biochemical. Format: biochemical. The note with it: cutoff of >85% inhibition at 10 μM; luminespib and ganetespib large kinome panel, others 16-kinase panel.
The conditions of test [2]: known interaction (K) listed by CLARITY, cited from earlier work.
The next test has as its target T1, PEAK1 (Homo sapiens, UniProt Q9H792).
T1 construct: purchased Reaction Biology (HotSpot contract assay)
Put plainly: HotSpot in vitro kinase radiometric assay. Format: biochemical. To be noted: 10uM, ATP 30 uM, Data 1, Data 2; for remaining activity at 10 µM: read-out: % Enzyme Activity (relative to DMSO controls), PEAK1.

The next test addresses T2, YES/YES1 (Homo sapiens, UniProt P07947).
T2 construct: purchased Reaction Biology (HotSpot contract assay)
The experiment in a line: HotSpot in vitro kinase radiometric assay. It is filed as biochemical. To be noted: 10uM, ATP 50 uM, Data 1, Data 2; for remaining activity at 10 µM: read-out: % Enzyme Activity (relative to DMSO controls), YES/YES1.

The next test deals with T3, LCK (Homo sapiens, UniProt P06239).
T3 construct: purchased Reaction Biology (HotSpot contract assay)
Put plainly: HotSpot in vitro kinase radiometric assay. It is filed as biochemical. The note with it: 10uM, ATP 15 uM, Data 1, Data 2; for remaining activity at 10 µM: read-out: % Enzyme Activity (relative to DMSO controls), LCK.

The next test concerns the target ABL1 (Homo sapiens, UniProt P00519). Put plainly: HotSpot in vitro kinase radiometric assay. Format: biochemical. The arrangement: purchased Reaction Biology (HotSpot contract assay). The note with it: 10uM, ATP 40 uM, Data 1, Data 2; for remaining activity at 10 µM: read-out: % Enzyme Activity (relative to DMSO controls), ABL1.
The next test has as its target T4, FGR (Homo sapiens, UniProt P09769).
T4 construct: purchased Reaction Biology (HotSpot contract assay)
Put plainly: HotSpot in vitro kinase radiometric assay. Format: biochemical. The note with it: 10uM, ATP 50 uM, Data 1, Data 2; for remaining activity at 10 µM: read-out: % Enzyme Activity (relative to DMSO controls), FGR.

In the next test the target is T5, ABL2/ARG (Homo sapiens, UniProt P42684).
T5 construct: purchased Reaction Biology (HotSpot contract assay)
T5 sequence (P42684 whole entry): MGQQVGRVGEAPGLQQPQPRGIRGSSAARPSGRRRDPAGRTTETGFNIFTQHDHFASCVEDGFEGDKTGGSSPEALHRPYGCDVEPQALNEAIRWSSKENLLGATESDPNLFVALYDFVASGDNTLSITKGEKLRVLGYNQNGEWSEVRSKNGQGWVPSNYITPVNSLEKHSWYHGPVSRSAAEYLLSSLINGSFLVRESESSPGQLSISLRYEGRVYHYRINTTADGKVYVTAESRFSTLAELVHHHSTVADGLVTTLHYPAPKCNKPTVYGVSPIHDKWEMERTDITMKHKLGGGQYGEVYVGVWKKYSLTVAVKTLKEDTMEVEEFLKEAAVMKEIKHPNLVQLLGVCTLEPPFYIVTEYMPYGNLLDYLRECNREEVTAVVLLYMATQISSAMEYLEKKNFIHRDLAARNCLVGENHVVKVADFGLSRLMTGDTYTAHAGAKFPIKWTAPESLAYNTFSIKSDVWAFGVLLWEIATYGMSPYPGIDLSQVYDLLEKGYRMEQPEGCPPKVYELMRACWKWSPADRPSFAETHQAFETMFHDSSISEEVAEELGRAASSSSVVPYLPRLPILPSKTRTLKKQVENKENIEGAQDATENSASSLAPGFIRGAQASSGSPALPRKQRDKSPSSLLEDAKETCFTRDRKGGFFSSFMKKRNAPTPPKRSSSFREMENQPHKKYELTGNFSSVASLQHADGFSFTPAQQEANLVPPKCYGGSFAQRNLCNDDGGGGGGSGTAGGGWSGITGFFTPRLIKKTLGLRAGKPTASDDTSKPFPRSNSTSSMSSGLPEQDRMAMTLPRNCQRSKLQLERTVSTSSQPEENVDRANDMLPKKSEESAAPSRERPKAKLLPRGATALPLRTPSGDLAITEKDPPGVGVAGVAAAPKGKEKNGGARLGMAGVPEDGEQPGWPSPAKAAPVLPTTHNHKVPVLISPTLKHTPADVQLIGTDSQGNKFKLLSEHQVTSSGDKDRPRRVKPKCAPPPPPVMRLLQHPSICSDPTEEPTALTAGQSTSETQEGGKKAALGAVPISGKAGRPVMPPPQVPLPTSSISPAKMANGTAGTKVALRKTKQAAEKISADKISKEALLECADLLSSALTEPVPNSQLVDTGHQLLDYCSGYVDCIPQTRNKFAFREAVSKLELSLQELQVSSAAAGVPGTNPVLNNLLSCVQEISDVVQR
Put plainly: HotSpot in vitro kinase radiometric assay. It is filed as biochemical. The note with it: 10uM, ATP 30 uM, Data 1, Data 2; for remaining activity at 10 µM: read-out: % Enzyme Activity (relative to DMSO controls), ABL2/ARG.

For a further test, the system named is HSP90AA1. The note with it: average of reported values; ref ChEMBL23 (accessed: 23/08/2018); cited from earlier work.
Another test deals with HSP90AB1. The arrangement: method as in ChEMBL23 (accessed: 23/08/2018). The note with it: average of reported values; ref ChEMBL23 (accessed: 23/08/2018); cited from earlier work.
The target in the next test is DDR1 (Homo sapiens, UniProt Q08345). The experiment in a line: HotSpot in vitro kinase radiometric assay. To be noted: 10uM, ATP 100 uM, Data 1, Data 2; for remaining activity at 10 µM: read-out: % Enzyme Activity (relative to DMSO controls), DDR1. The arrangement: purchased Reaction Biology (HotSpot contract assay). Format: biochemical.
DDR1, sequence (Q08345 19-913): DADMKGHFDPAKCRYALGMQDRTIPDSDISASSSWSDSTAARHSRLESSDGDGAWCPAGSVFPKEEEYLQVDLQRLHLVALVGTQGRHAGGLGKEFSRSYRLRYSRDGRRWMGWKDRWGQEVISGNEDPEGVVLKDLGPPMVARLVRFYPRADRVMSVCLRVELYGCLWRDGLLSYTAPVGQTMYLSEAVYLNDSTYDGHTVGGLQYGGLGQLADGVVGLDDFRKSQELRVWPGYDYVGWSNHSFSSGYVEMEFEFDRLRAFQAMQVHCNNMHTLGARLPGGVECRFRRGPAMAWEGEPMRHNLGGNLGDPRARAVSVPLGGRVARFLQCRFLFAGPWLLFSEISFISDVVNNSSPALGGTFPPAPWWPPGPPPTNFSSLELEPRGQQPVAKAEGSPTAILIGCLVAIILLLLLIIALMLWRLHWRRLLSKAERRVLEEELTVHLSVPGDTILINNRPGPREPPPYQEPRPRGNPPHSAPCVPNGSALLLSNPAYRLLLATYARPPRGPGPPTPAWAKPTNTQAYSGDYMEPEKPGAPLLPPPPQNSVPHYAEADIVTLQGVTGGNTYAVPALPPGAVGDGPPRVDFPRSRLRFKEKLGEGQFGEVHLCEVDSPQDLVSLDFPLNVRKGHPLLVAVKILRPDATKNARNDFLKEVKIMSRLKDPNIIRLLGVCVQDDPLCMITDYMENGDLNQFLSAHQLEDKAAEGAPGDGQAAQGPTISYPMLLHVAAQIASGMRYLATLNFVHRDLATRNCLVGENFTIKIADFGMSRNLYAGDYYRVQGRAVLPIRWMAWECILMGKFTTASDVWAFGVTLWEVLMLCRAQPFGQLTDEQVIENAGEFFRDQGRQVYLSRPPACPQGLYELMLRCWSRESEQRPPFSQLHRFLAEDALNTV
The next test concerns the target T6, PASK (Homo sapiens, UniProt Q96RG2).
T6 construct: purchased Reaction Biology (HotSpot contract assay)
The experiment in a line: HotSpot in vitro kinase radiometric assay. It is filed as biochemical. The note with it: 10uM, ATP 50 uM, Data 1, Data 2; for remaining activity at 10 µM: read-out: % Enzyme Activity (relative to DMSO controls), PASK. From the text: (§1) Accordingly, we selected five additional representative HSP90 inhibitors, at least one from each chemical class, including both synthetic inhibitors and natural products.
(§2) Accordingly, we screened the hit compound and the two leads for kinase off-target inhibition using the 16-kinase panel and the same in vitro catalytic assay used previously.
(§3) This radioisotope binding assay was designed to directly detect the true product without the use of modified substrates, coupling enzymes, or detection antibodies thus enabling to directly measure inhibition of catalytic activity. Test or control compounds were incubated with kinase, substrate, cofactors, and radioisotope-labeled ATP (32P-ɣ-ATP or 33P-ɣ-ATP). The reaction mixtures were then spotted onto filter papers, which bind the radioisotope-labeled catalytic product.

The target of another test is T7, TRKA (Homo sapiens, UniProt P04629).
T7 construct: purchased Reaction Biology (HotSpot contract assay)
Put plainly: HotSpot in vitro kinase radiometric assay. Format: biochemical. The note with it: 10uM, ATP 100 uM, Data 1, Data 2; for remaining activity at 10 µM: read-out: % Enzyme Activity (relative to DMSO controls), TRKA.
Description: as §1, §2, §3

A further test has as its target T8, PDK4/PDKH4 (Homo sapiens, UniProt Q16654).
T8 construct: purchased Reaction Biology (HotSpot contract assay)
The experiment in a line: HotSpot in vitro kinase radiometric assay. It is filed as biochemical. To be noted: 10uM, ATP 30 uM, Data 1, Data 2; for remaining activity at 10 µM: read-out: % Enzyme Activity (relative to DMSO controls), PDK4/PDKH4. As for the experimental part: (§4) Accordingly, we selected five additional representative HSP90 inhibitors, at least one from each chemical class, including both synthetic inhibitors and natural products. […]
as §3

The next test has as its target T9, BLK (Homo sapiens, UniProt P51451).
T9 construct: purchased Reaction Biology (HotSpot contract assay)
Put plainly: HotSpot in vitro kinase radiometric assay. Format: biochemical. To be noted: 10uM, ATP 10 uM, Data 1, Data 2; for remaining activity at 10 µM: read-out: % Enzyme Activity (relative to DMSO controls), BLK. As to the method: as §4, §3

A further test deals with T10, PDK2/PDHK2 (Homo sapiens, UniProt Q15119).
T10 construct: purchased Reaction Biology (HotSpot contract assay)
The experiment in a line: HotSpot in vitro kinase radiometric assay. It is filed as biochemical. To be noted: 10uM, ATP 15 uM, Data 1, Data 2. As to the method: as §4, §3

A further test concerns the target T11, LYN B (Homo sapiens, UniProt P07948).
T11 construct: purchased Reaction Biology (HotSpot contract assay)
Put plainly: HotSpot in vitro kinase radiometric assay. It is filed as biochemical. To be noted: 10uM, ATP 20 uM, Data 1, Data 2; for remaining activity at 10 µM: read-out: % Enzyme Activity (relative to DMSO controls), LYN B. As for the experimental part:
as §4, §3

Another test concerns the target T12, c-Src (Homo sapiens, UniProt P12931).
T12 construct: purchased Reaction Biology (HotSpot contract assay)
The experiment in a line: HotSpot in vitro kinase radiometric assay. It is filed as biochemical. The note with it: 10uM, ATP 15 uM, Data 1, Data 2; for remaining activity at 10 µM: read-out: % Enzyme Activity (relative to DMSO controls), c-Src. As for the experimental part:
as §4, §3

The subject of the next test is TRAP1. The arrangement: method as in ChEMBL23 (accessed: 23/08/2018). To be noted: average of reported values; ref ChEMBL23 (accessed: 23/08/2018); cited from earlier work.
In the next test the target is T13, TRKC (Homo sapiens, UniProt Q16288).
T13 construct: purchased Reaction Biology (HotSpot contract assay)
T13 sequence (Q16288 32-839): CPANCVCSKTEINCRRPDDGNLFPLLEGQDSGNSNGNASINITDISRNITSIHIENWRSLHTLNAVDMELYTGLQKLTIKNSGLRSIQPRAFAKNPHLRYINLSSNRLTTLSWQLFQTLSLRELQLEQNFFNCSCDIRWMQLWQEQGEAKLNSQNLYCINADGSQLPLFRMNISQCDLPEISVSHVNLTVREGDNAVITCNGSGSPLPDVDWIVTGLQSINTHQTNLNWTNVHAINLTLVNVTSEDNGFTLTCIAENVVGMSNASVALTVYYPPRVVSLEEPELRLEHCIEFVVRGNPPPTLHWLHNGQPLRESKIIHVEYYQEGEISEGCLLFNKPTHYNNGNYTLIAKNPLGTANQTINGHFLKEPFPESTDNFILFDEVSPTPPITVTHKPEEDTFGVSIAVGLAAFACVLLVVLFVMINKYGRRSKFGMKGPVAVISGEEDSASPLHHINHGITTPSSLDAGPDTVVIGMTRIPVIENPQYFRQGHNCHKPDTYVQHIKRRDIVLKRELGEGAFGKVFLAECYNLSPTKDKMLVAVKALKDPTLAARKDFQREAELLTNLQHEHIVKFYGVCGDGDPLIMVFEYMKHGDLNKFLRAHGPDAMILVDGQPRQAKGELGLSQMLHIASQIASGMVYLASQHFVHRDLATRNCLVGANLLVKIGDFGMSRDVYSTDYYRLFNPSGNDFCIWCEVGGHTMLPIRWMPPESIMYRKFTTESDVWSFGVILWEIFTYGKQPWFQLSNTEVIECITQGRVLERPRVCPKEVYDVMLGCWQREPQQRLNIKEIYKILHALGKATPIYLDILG
The experiment in a line: HotSpot in vitro kinase radiometric assay. Format: biochemical. To be noted: 10uM, ATP 100 uM, Data 1, Data 2; for remaining activity at 10 µM: read-out: % Enzyme Activity (relative to DMSO controls), TRKC.

A further test concerns the target T14, FYN (Homo sapiens, UniProt P06241).
T14 construct: purchased Reaction Biology (HotSpot contract assay)
The experiment in a line: HotSpot in vitro kinase radiometric assay. It is filed as biochemical. To be noted: 10uM, ATP 30 uM, Data 1, Data 2; for remaining activity at 10 µM: read-out: % Enzyme Activity (relative to DMSO controls), FYN.

The test system of another test is 16-kinase panel. Put plainly: 16-kinase panel screening, in vitro radiometric assay. Format: biochemical, human. The note with it: 10 μM.
For test [3], the target named is T15, 382 unique human kinases (Homo sapiens, UniProt P37173).
T15 construct: purchased Reaction Biology (HotSpot contract assay)
Put plainly: biochemical. It is filed as biochemical. The note with it: kinase TGFBR2; read-out: Control Compound IC50*.

Test [4] addresses T16, 382 unique human kinases (Homo sapiens, UniProt Q96QT4).
T16 construct: purchased Reaction Biology (HotSpot contract assay)
The experiment in a line: biochemical. To be noted: kinase TRPM7/CHAK1; read-out: Control Compound IC50*. Format: biochemical.

The target in test [5] is T17, 382 unique human kinases (Homo sapiens, UniProt P27361).
T17 construct: purchased Reaction Biology (HotSpot contract assay)
Put plainly: biochemical. Format: biochemical. To be noted: ERK1; read-out: Control Compound IC50*.

Test [6] has as its target T18, 382 unique human kinases (Homo sapiens, UniProt Q9BYP7).
T18 construct: purchased Reaction Biology (HotSpot contract assay)
Put plainly: biochemical. It is filed as biochemical. To be noted: WNK3; read-out: Control Compound IC50*.

Read-outs that look alike come from different tables or passages of the source.

T9 sequence (P51451 whole entry): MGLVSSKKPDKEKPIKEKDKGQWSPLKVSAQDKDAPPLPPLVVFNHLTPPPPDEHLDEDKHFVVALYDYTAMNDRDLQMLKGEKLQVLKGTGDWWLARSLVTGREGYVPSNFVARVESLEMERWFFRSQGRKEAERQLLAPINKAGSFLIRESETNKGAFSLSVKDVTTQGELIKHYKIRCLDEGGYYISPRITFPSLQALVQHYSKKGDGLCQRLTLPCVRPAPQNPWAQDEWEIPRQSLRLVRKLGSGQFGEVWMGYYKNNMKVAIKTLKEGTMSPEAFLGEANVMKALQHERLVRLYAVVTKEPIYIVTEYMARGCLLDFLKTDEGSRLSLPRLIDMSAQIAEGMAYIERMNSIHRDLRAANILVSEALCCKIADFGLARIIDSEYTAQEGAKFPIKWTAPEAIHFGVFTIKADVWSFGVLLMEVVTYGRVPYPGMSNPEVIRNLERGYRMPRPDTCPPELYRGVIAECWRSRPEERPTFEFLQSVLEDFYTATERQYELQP
T8 sequence (Q16654 whole entry): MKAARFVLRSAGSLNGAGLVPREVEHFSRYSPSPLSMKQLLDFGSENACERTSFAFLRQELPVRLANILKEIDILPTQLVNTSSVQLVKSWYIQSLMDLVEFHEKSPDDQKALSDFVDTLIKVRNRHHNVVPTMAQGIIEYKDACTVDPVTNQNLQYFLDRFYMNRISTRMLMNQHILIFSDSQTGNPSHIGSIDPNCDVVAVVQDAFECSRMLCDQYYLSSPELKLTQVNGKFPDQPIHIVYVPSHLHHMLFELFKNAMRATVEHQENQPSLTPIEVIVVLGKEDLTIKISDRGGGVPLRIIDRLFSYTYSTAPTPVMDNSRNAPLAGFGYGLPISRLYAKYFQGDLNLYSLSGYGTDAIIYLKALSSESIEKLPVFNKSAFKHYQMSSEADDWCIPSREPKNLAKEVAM
T4 sequence (P09769 whole entry): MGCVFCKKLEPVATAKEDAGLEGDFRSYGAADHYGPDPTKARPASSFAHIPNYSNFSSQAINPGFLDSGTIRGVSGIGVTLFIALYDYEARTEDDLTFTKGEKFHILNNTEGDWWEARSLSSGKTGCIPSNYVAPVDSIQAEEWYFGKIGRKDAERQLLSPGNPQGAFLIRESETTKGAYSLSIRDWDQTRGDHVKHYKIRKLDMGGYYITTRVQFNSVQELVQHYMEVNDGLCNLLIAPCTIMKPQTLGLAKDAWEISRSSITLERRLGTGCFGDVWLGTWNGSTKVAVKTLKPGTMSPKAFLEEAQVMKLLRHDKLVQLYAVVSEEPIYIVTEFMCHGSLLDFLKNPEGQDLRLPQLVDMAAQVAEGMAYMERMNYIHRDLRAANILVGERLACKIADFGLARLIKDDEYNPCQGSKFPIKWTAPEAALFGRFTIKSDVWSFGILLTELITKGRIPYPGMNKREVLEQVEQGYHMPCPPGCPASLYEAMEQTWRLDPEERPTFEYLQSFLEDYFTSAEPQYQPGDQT
T14 sequence (P06241 whole entry): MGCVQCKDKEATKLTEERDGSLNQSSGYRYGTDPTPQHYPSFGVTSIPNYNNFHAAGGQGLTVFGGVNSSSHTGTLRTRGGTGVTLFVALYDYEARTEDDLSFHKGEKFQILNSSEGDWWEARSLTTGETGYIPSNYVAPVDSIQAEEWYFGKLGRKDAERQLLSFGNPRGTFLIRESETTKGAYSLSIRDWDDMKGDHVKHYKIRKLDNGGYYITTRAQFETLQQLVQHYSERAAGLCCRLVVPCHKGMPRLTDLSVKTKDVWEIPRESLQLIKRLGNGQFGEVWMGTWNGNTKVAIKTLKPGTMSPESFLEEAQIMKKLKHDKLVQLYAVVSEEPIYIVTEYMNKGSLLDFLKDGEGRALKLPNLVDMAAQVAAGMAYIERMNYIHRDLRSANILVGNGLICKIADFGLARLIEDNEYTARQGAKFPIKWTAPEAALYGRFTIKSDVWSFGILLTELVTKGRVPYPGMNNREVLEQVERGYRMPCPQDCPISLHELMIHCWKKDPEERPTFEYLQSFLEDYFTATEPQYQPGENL

As to `COc1c(C)cnc(Cn2cnc3c(Cl)nc(N)nc32)c1C` [BIIB021], in the test on 382 unique human kinases [1], the “number of off-target kinases experimentally identified, In vitro binding (KinomeSCAN)” value (from here on “number”) turned out to be 0. Moreover, the “pACT(exp)” value is reported as 6.8 in test [2] (Endoplasmin (P14625)); 7.1 in [2] (Heat shock protein 75 kDa, mitochondrial (Q12931)); 8.1 in [2] (Heat shock protein HSP 90-alpha (P07900)); 7.8 in test [2] (Heat shock protein HSP 90-beta (P08238)).

Take `CN(C)c1cc2c(cc1Sc1nc3c(N)nccc3n1CCNCC(C)(C)C)OCO2` [Debio-0932]: the “% Enzyme Activity (relative to DMSO controls)” value on PEAK1 (PEAK1) is listed as 103.94%; on YES/YES1 (YES/YES1), 102.37%; at LCK (LCK), 109.56%; at ABL1 (ABL1) it was 104.74%; on FGR (FGR), 101.88%; on ABL2/ARG (ABL2/ARG), 106.65%. Moreover, the “% Enzyme Activity (relative to DMSO controls)” value on DDR1 (DDR1) is recorded as 85.1%; on PASK (PASK), 102.33%; on TRKA (TRKA), 103.51%; at PDK4/PDKH4 (PDK4/PDKH4) it was 111.02%; on BLK (BLK), 109.86%; on PDK2/PDHK2 (PDK2/PDHK2), 100.31%. The “% Enzyme Activity (relative to DMSO controls)” value stood at 101.36% at LYN B (LYN B), 109.48% on c-Src (c-Src), 97.21% on TRKC (TRKC) and 102.22% at FYN (FYN). Also, the remaining activity at 10 µM turned out to be 104% on PEAK1; 96% on YES/YES1; 110% on LCK; 111% on ABL1; 102% at FGR; 107% at ABL2/ARG. The remaining activity at 10 µM at DDR1 amounted to 94.8%; on PASK it was 101%; at TRKA, 104%; at PDK4/PDKH4 it was 111%; at BLK, 110%; on PDK2/PDHK2 (read-out: % Enzyme Activity (relative to DMSO controls), PDK2/PDHK2), 108%. Also, the remaining activity at 10 µM at LYN B was found to be 101%; on c-Src it was 107%; at TRKC, 93.3%; at FYN, 103%. For the same compound, in the test with 382 unique human kinases [1], the “number” value was determined as 0. For the same compound, in the test with HSP90AA1, the “pActivity, HSP90AA1” value is listed as 7.48. The “pActivity, HSP90AB1” value in the test on HSP90AB1 was 7.42. Also, in the test with TRAP1, the “pActivity, TRAP1” value is recorded as 5.8. For the same compound, the “activity against the 16-kinase panel” value in the test with 16-kinase panel is “inactive”.

Regarding `c1ccc2c(-c3cnn4cc(-c5ccc(N6CCNCC6)cc5)cnc34)ccnc2c1` [LDN193189], the half-inhibitory concentration (IC50) on 382 unique human kinases [3] was determined as 165 nM.

As to `CCCCCCCCCCCCCCCCn1cc[n+](Cc2ccccc2)c1C` [NH125], the IC50 on 382 unique human kinases [4] is 9950 nM.

Consider `O=C(Nc1ccc2[nH]nc(-c3ccncc3)c2c1)[C@@H]1CCN(CC(=O)N2CCN(c3ccc(-c4ncccn4)cc3)CC2)C1` [SCH772984], for which the IC50 at 382 unique human kinases [5] came out at 9.81 nM.

Consider `CC1(C)CC(=O)c2c(C(F)(F)F)nn(-c3ccc(C(N)=O)c(N[C@H]4CC[C@H](O)CC4)c3)c2C1` [SNX-2112], for which the remaining activity at 10 µM on PEAK1 was found to be 105%; on YES/YES1 it was 101%; at LCK it was 114%; at ABL1, 109%; on FGR, 111%; on ABL2/ARG it was 114%. The remaining activity at 10 µM at DDR1 was 93.4%; on PASK, 101%; at TRKA it was 107%; at PDK4/PDKH4, 94.8%; on BLK, 116%; on LYN B, 107%. For the same compound, the remaining activity at 10 µM is 99% at c-Src, 93% at TRKC and 113% on FYN. In the test with 382 unique human kinases [1], the “number” value is 0. Also, in the test with HSP90AB1, the “pActivity, HSP90AB1” value is given as 8.34. For the same compound, the “pActivity, TRAP1” value in the test on TRAP1 is on record as 6.12. In addition, in the test with 16-kinase panel, the “activity against the 16-kinase panel” value was “inactive”.

On to `O=C1NC(=O)c2c1c(-c1ccccc1Cl)cc1[nH]c3ccc(O)cc3c21` [Wee-1 Inhibitor], for which the concentration for half-maximal inhibition (IC50) at 382 unique human kinases [6] was found to be 3570 nM.
